# Data as given in patent US10471046B2, “Method for treating, preventing, or reducing the risk of skin infection” (Melinta Subsidiary Corp., priority 2014, dated 2019).
# Structures can show the parent of a compound that is named as a salt. Where two headings read alike, the source gives them in different places.
# Experiments:
# [1] = assay type: physicochemical; conditions: radezolid salt forms in HPLC grade water, ambient temperature
# [2] = tested on: Staphylococcus aureus; experiment: MIC against ribosome-based resistance phenotypes; assay type: cell-based; conditions: ATCC29213, Staphylococcus aureus ATCC29213, phenotype QC, read-out: Minimum Inhibitory Concentration (MIC)
# Text: (§1) Furthermore, the antibiotic compounds can be assayed for anti-proliferative or anti-infective properties on a cellular level. For example, where the target organism is a microorganism, the activity of compounds of interest can be assayed by growing the microorganisms of interest in media either containing or lacking the compound. Growth inhibition can be indicative that the molecule could be acting as a protein synthesis inhibitor. […] For this purpose, a panel of bacterial strains can be assembled to include a variety of target pathogenic species, some containing resistance mechanisms that have been characterized. Use of such a panel of organisms permits the determination of structure-activity relationships not only in regards to potency and spectrum, but also with a view to obviating resistance mechanisms.
# [3] = tested on: Enterococcus faecalis; experiment: MIC against ribosome-based resistance phenotypes; assay type: cell-based; conditions: read-out: Minimum Inhibitory Concentration (MIC)
# Text: as §1
# [4] = tested on: S. aureus; experiment: Broth microdilution MIC; assay type: cell-based; conditions: for MIC: Staphylococcus aureus, ATCC29213, S. aureus ATCC 29213
# [5] = tested on: B. fragilis; experiment: Agar dilution MIC (CLSI reference method); assay type: cell-based; conditions: Bacteroides fragilis, ATCC25285; B. fragilis ATCC 25285
# [6] = tested on: P. granulosum; experiment: Agar dilution MIC (CLSI reference method); assay type: cell-based; conditions: P. granulosum ATCC 25746
# [7] = tested on: P. granulosum; experiment: Broth microdilution MIC; assay type: cell-based; conditions: P. granulosum ATCC 25746
# [8] = tested on: F. magna; experiment: Agar dilution MIC (CLSI reference method); assay type: cell-based; conditions: Finegoldia magna, ATCC15794; F. magna ATCC 15794
# [9] = tested on: B. fragilis; experiment: Broth microdilution MIC; assay type: cell-based; conditions: Bacteroides fragilis, ATCC25285; B. fragilis ATCC 25285
# [10] = tested on: P. acnes; experiment: Agar dilution MIC (CLSI reference method); assay type: cell-based; conditions: Cutibacterium acnes
# [11] = tested on: G. vaginalis; experiment: Agar dilution MIC (CLSI reference method); assay type: cell-based; conditions: Gardnerella vaginalis
# [12] = tested on: G. vaginalis; experiment: Broth microdilution MIC; assay type: cell-based; conditions: Gardnerella vaginalis
# [13] = tested on: F. magna; experiment: Broth microdilution MIC; assay type: cell-based; conditions: Finegoldia magna, ATCC15794; F. magna ATCC 15794
# [14] = tested on: B. thetaiotaomicron; experiment: microbe, parasite or virus in culture; assay type: cell-based; conditions: for MIC: Bacteroides thetaiotaomicron, ATCC29741, read-out: MIC, broth microdilution
# [15] = Dynamic vapor sorption/desorption (DVS); assay type: physicochemical; conditions: radezolid salts
# Experimental: Dynamic vapor sorption/desorption (DVS) data were collected on a VTI SGA-100 Vapor Sorption Analyzer. Sorption and desorption data were collected over a range of 5% to 95% relative humidity (RH) at 10% RH intervals under a nitrogen purge. Samples were not dried prior to analysis. Equilibrium criteria used for analysis were less than 0.0100% weight change in 5 minutes, with a maximum equilibration time of 3 hours if the weight criterion was not met. Data were not corrected for the initial moisture content of the samples. Sodium chloride and polyvinylpyrrolidine (PVP) were used as calibration standards.
# [16] = Solubility of salts in water by HPLC; assay type: physicochemical; conditions: for Solubility at Adjusted pH: pH adjusted to ~3.5; for Native pH: supernatant of saturated salt solution in water
# Experimental: In another set of experiments, solubility of various radezolid salts was determined by HPLC. Approximately 1 mL of saturated solution (with excess of solid in solution) of each salt was prepared in water. The mixture was further mixed overnight on a slurry wheel then centrifuged on a desktop centrifuge at maximum speed for ˜5 min. The supernatant was collected, and pH was measured. Solubility was determined at the native pH. Then the pH was adjusted to ˜3.5 with sodium hydroxide solution or an acid solution in which salt was generated. The supernatant was filtered through a 0.2 μm nylon syringe filter and diluted into 0.1% formic acid solution immediately after filtration for HPLC. All HPLC analyses were performed using an Agilent 1100 series liquid chromatograph equipped with a diode array detector, degasser, quaternary pump, and an autosampler. […] The column temperature was set to 30° C., and the detector wavelength was 270 nm with a bandwidth of 8 nm and a reference wavelength of 360 nm. The mobile phase A was 0.1% formic acid in water (HPLC grade), mobile phase B was 0.1% formic acid in methanol (HPLC grade). […] The injection volume was 5 μl.
# [17] = Approximate solubility in solvents by aliquot addition; assay type: physicochemical; conditions: organic solvent or mixture, thermodynamic from solid
# Experimental: Solubilities of the radezolid free base and radezolid HCl salt in various solvents were estimated and are shown in Tables 10 and 11, respectively, below. A weighed sample was treated with aliquots of test solvent at ambient temperature. Complete dissolution of the test material was determined by visual inspection. Solubility was estimated based on the total solvent used to provide complete dissolution. The actual solubility may be greater than the approximate solubility calculated because of the use of solvent aliquots that were too large or due to a slow rate of dissolution. […] If complete dissolution was achieved as a result of only one aliquot addition, the solubility is expressed as “greater than.” The approximate solubilities were rounded to the nearest whole number.
# [18] = ATCC14018, G. vaginalis ATCC 14018
# [19] = ATCC49145, G. vaginalis ATCC 49145
# [20] = radezolid salts in water by HPLC at 23° C., Tosylate Salt
smiles,measurement,setting,value
CC(=O)NC[C@H]1CN(c2ccc(-c3ccc(CNCc4cnn[nH]4)cc3)c(F)c2)C(=O)O1 [Acetate],solubility,[1],<20 µg/mL
"CC[C@H]1OC(=O)[C@H](C)[C@@H](O[C@H]2C[C@@](C)(OC)[C@@H](O)[C@H](C)O2)[C@H](C)[C@@H](O[C@@H]2O[C@H](C)C[C@H](N(C)C)[C@H]2O)[C@](C)(O)C[C@@H](C)CN(C)[C@H](C)[C@@H](O)[C@]1(C)O [Azithromycin, azithromycin]",MIC,[2],1 µg/mL
same,MIC,"[3]; ATCC29212, Enterococcus faecalis ATCC29212, phenotype QC",8 µg/mL
same,MIC,"[3]; ATCC29212, Enterococcus faecalis ATCC29212-P5, Lin-R (G2576U)",8 µg/mL
same,MIC,[3],128 µg/mL
CC(=O)NC[C@H]1CN(c2ccc(-c3ccc(CNCc4cnn[nH]4)cc3)c(F)c2)C(=O)O1 [Benzoate],solubility,[1],<30 µg/mL
CC(=O)NC[C@H]1CN(c2ccc(-c3ccc(CNCc4cnn[nH]4)cc3)c(F)c2)C(=O)O1 [Citrate],solubility,[1],2600 µg/mL
"CCC[C@@H]1C[C@@H](C(=O)N[C@@H]([C@H]2O[C@H](SC)[C@H](O)[C@@H](O)[C@H]2O)[C@H](C)Cl)N(C)C1 [Clindamycin, clindamycin]",MIC,[4],0.25 µg/mL
same,MIC,[5],2 µg/mL
same,MIC,[6],1 µg/mL
same,MIC,[7],1 µg/mL
same,MIC,[8],1 µg/mL
same,MIC,[9],1 µg/mL
same,MIC,"[10]; ATCC11827, P. acnes ATCC 11827",≤ 0.06 µg/mL
same,MIC,"[10]; ATCC11828, P. acnes ATCC 11828",0.125 µg/mL
same,MIC,"[10]; ATCC29399, P. acnes ATCC 29399",≤ 0.06 µg/mL
same,MIC,[11]; [18],0.25 µg/mL
same,MIC,[11]; [19],0.125 µg/mL
same,MIC,[12]; [18],0.125 µg/mL
same,MIC,[12]; [19],≤ 0.06 µg/mL
same,MIC,[13],0.5 µg/mL
"C[C@H]1c2cccc(O)c2C(=O)C2=C(O)[C@]3(O)C(=O)C(C(N)=O)=C(O)[C@@H](N(C)C)[C@@H]3[C@@H](O)[C@@H]21 [DOX, doxycycline]",MIC difference relative to radezolid MIC,"[4]; S. aureus, doxycycline and clindamycin: MICs lower than radezolid",4 fold
same,MIC,[4],0.5 µg/mL
same,MIC difference relative to radezolid MIC,"[14]; B. thetaiotaomicron, doxycycline: more potent than radezolid",4 fold
same,MIC,[14],2 µg/mL
same,MIC,[7],0.25 µg/mL
same,MIC,[9],≤ 0.06 µg/mL
same,MIC,[12]; [18],0.5 µg/mL
same,MIC,[12]; [19],32 µg/mL
same,MIC,[13],0.125 µg/mL
"CC[C@H]1OC(=O)[C@H](C)[C@@H](O[C@H]2C[C@@](C)(OC)[C@@H](O)[C@H](C)O2)[C@H](C)[C@@H](O[C@@H]2O[C@H](C)C[C@H](N(C)C)[C@H]2O)[C@](C)(O)C[C@@H](C)C(=O)[C@H](C)[C@@H](O)[C@]1(C)O [ERY, erythromycin]",MIC,[4],1 µg/mL
same,MIC,[14],16 µg/mL
same,MIC,[7],16 µg/mL
same,MIC,[9],16 µg/mL
same,MIC,[12]; [18],≤ 0.06 µg/mL
same,MIC,[12]; [19],≤ 0.06 µg/mL
same,MIC,[13],4 µg/mL
CC(=O)NC[C@H]1CN(c2ccc(-c3ccc(CNCc4cnn[nH]4)cc3)c(F)c2)C(=O)O1 [Fumarate],solubility,[1],2600 µg/mL
"CC(=O)NC[C@H]1CN(c2ccc(-c3ccc(CNCc4cnn[nH]4)cc3)c(F)c2)C(=O)O1 [Hydrochloride, (5S)—N-[3-(2-Fluoro-4′-{[(1H-[1,2,3]triazol-4-ylmethyl)-amino]-methyl}-biphenyl-4-yl)-2-oxo-oxazolidin-5-ylmethyl]-acetamide chloride]",solubility,[1],<30 µg/mL
same,DVS desorption: weight loss from 95 to 5% RH,[15],Desorption: 0.069% weight loss
same,DVS sorption: weight gain from 5 to 95% RH,[15],0.064% weight gain from 5 to
same,DVS sorption: weight gain upon equilibration at 5% RH,[15],Sorption: 0.03% weight gain
same,Solubility at Adjusted pH,"[16]; radezolid salts in water by HPLC at 23° C., listed as HCl Salt",2.0 mg/mL
same,Native pH,[16]; listed as HCl Salt,4.6
same,solubility,"[17]; 1-butanol, Table 11: 1-Butanol, material never went into solution",< 2000 µg/mL
same,solubility,"[17]; 2,2,2-trifluoroethanol (TFE), Table 11: 2,2,2-trifluoroethanol (TFE)",≥ 6000 µg/mL
same,solubility,"[17]; 2-butanone, Table 11: 2-Butanone, material never went into solution",< 2000 µg/mL
same,solubility,"[17]; 2-propanol, Table 11: 2-Propanol, material never went into solution",< 2000 µg/mL
same,solubility,"[17]; HFIPA/THF, Table 11: HFIPA/THF",≥ 74000 µg/mL
same,solubility,"[17]; HFIPA/dioxane (9:1), Table 11: HFIPA/Dioxane (9:1)",≥ 52000 µg/mL
same,solubility,"[17]; HFIPA/ethanol (5:1), Table 11: HFIPA/Ethanol (5:1)",≥ 80000 µg/mL
same,solubility,"[17]; dioxane, Table 11: Dioxane, material never went into solution",< 2000 µg/mL
same,solubility,"[17]; ethanol, Table 11: Ethanol, material never went into solution",< 2000 µg/mL
same,solubility,"[17]; hexafluoroisopropanol (HFIPA), Table 11: Hexafluoroisopropanol (HFIPA)",≥ 225000 µg/mL
same,solubility,"[17]; methanol, Table 11: Methanol, material never went into solution",< 2000 µg/mL
same,solubility,"[17]; propionitrile, Table 11: Propionitrile, material never went into solution",< 2000 µg/mL
same,solubility,"[17]; tert-butanol, Table 11: Tert-butanol, material never went into solution",< 5000 µg/mL
same,solubility,"[17]; tetrahydrofuran (THF), Table 11: Tetrahydrofuran (THF), material never went into solution",< 2000 µg/mL
CC(=O)NC[C@H]1CN(c2ccc(-c3ccc(CNCc4cnn[nH]4)cc3)c(F)c2)C(=O)O1 [Lactate],solubility,[1],<20 µg/mL
"Cc1ncc([N+](=O)[O-])n1CCO [MET, metronidazole]",MIC,[4],> 32 µg/mL
same,MIC,[14],4 µg/mL
same,MIC,[7],1 µg/mL
same,MIC,[9],0.5 µg/mL
same,MIC,[12]; [18],8 µg/mL
same,MIC,[12]; [19],4 µg/mL
same,MIC,[13],0.125 µg/mL
CC(=O)NC[C@H]1CN(c2ccc(-c3ccc(CNCc4cnn[nH]4)cc3)c(F)c2)C(=O)O1 [Maleate],solubility,[1],2300 µg/mL
CC(=O)NC[C@H]1CN(c2ccc(-c3ccc(CNCc4cnn[nH]4)cc3)c(F)c2)C(=O)O1 [Phosphate],solubility,[1],1100 µg/mL
CC(=O)NC[C@H]1CN(c2ccc(-c3ccc(CNCc4cnn[nH]4)cc3)c(F)c2)C(=O)O1 [Salicylate],solubility,[1],<30 µg/mL
CC(=O)NC[C@H]1CN(c2ccc(-c3ccc(CNCc4cnn[nH]4)cc3)c(F)c2)C(=O)O1 [Succinate],solubility,[1],<30 µg/mL
"CN(C)[C@@H]1C(O)=C(C(N)=O)C(=O)[C@@]2(O)C(O)=C3C(=O)c4c(O)cccc4[C@@](C)(O)[C@H]3C[C@@H]12 [TET, tetracycline]",MIC,[4],1 µg/mL
same,MIC,[14],8 µg/mL
same,MIC,[7],0.25 µg/mL
same,MIC,[9],0.25 µg/mL
same,MIC,[12]; [18],0.5 µg/mL
same,MIC,[12]; [19],> 32 µg/mL
same,MIC,[13],0.25 µg/mL
CC(=O)NC[C@H]1CN(c2ccc(-c3ccc(CNCc4cnn[nH]4)cc3)c(F)c2)C(=O)O1 [Tartrate],solubility,[1],1800 µg/mL
"CC(=O)NC[C@H]1CN(c2ccc(-c3ccc(CNCc4cnn[nH]4)cc3)c(F)c2)C(=O)O1 [Tosylate, Radezolid Tosylate Salt]",DVS desorption: weight loss from 95 to 5% RH,[15]; Tosylate Salt,Desorption: 0.435% weight loss
same,DVS sorption: weight gain from 5 to 95% RH,[15]; Tosylate Salt,0.435% weight gain from 5 to
same,DVS sorption: weight loss upon equilibration at 5% RH,[15]; Tosylate Salt,Sorption: 0.070% weight loss
same,Solubility at Adjusted pH,[16]; [20],0.4 mg/mL
same,Solubility at Native pH,[16]; [20],0.9 mg/mL
same,Native pH,[16]; Tosylate Salt,5.1
